The results in this text go back to PMC12196291, “Absolute Configuration and Chiroptical Properties of Flexible Drug Avapritinib” (Pharmaceuticals, 2025).

For the assay, the target named is C-KIT (D816V) (Homo sapiens, UniProt P10721, D816V). Nature of the assay: in vitro kinase activity assay (substrate/ATP, 384-well, ELISA-BMG readout), positive control. The format is biochemical. A general note: ELISA stands for enzyme-linked immunosorbent assay.
C-KIT (D816V), sequence (P10721 546-976 D816V limits assumed): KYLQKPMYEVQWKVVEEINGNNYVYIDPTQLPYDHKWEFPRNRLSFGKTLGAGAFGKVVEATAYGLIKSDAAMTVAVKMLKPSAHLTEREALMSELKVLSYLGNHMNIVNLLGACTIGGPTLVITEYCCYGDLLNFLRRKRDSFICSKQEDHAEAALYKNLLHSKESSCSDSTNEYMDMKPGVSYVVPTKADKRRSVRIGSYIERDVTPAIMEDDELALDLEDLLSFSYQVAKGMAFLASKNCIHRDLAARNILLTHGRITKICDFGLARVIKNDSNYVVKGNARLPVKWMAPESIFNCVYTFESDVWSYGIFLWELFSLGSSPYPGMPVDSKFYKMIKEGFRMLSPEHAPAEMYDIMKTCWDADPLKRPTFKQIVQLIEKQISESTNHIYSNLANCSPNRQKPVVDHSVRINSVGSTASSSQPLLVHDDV

One may read the IC50 as the concentration that gives 50% inhibition. The molecule `S=C(NCc1ccc2c(c1)OCO2)N1CCN(c2ncnc3c2oc2ccccc23)CC1` [Amuvatinib] showed an IC50 of 26.9 ± 1.51 nM.
